{
  "source": "patent EP0003788B1",
  "about": "“Glycofuranosyl-nitrosourea derivatives, process for their manufacture and their pharmaceutical preparations” (CIBA-GEIGY AG, priority 1978, dated 1979)",
  "key": {"Ehrlich-Ascites-Karzinom": {"system": "Ehrlich-Ascites-Karzinom", "experiment": "Inhibition of tumour growth, Ehrlich ascites carcinoma in mice", "type": "in vivo, Mäusen"}, "Walker CaSa 256": {"system": "Walker CaSa 256", "experiment": "Inhibition of tumour growth, Walker CaSa 256 in rats", "type": "in vivo, Ratten"}, "Leukämie L 1210": {"system": "Leukämie L 1210", "experiment": "Prolongation of life, leukaemia L 1210 in mice", "type": "in vivo, Mäusen", "procedure": "So bewirken sie in Dosen von 25-500 mg/kg i.p. eine starke Hemmung des Tumorwachstums bei Mäusen mit z.B. Ehrlich-Ascites-Karzinom und bei Ratten mit z.B. Walker CaSa 256. Analoge Dosen bewirken eine Lebensverlängerung gegenüber Kontrollen bei Mäusen mit z.B. Leukämie L 1210."}, "[1]": {"experiment": "Tolerability and side effects on treatment", "type": "in vivo"}, "[2]": {"experiment": "Macroscopic organ changes in normal animals after three weeks of peroral treatment", "type": "in vivo"}},
  "data": [
    {"smiles": "CCO[C@@H]1O[C@H]([C@@H](CNC(=O)N(C)N=O)OC)[C@H](O)[C@H]1O", "note": "[Äthyl-6-desoxy-5-0-methyl-6-(3-methyl-3-nitroso-ureido)-ß-D-glucofuranosid]", "values": [
      {"measurement": "Hemmung des Wachstums der genannten Tumoren", "setting": "Ehrlich-Ascites-Karzinom; 50-250 mg/kg i.p., mice with Ehrlich ascites carcinoma", "value": "80-100%"},
      {"measurement": "Hemmung des Wachstums der genannten Tumoren", "setting": "Ehrlich-Ascites-Karzinom; p.o. application, Ehrlich ascites carcinoma", "value": "Ähnliche Resultate"},
      {"measurement": "Hemmung des Wachstums der genannten Tumoren", "setting": "Walker CaSa 256; 50-250 mg/kg i.p., rats with Walker CaSa 256", "value": "80-100%"},
      {"measurement": "Hemmung des Wachstums der genannten Tumoren", "setting": "Walker CaSa 256; p.o. application, Walker CaSa 256", "value": "Ähnliche Resultate"},
      {"measurement": "Lebensverlängerung", "setting": "Leukämie L 1210; 50-250 mg/kg i.p.", "value": "> 90", "unit": "%"},
      {"measurement": "Lebensverlängerung", "setting": "Leukämie L 1210; p.o. application", "value": "Ähnliche Resultate"},
      {"measurement": "Nebenwirkungen", "setting": "[1]; also on prolonged treatment", "value": "nicht festzustellen"},
      {"measurement": "Verträglichkeit", "setting": "[1]; in vivo", "value": "gut"},
      {"measurement": "Organveränderungen", "setting": "[2]", "value": "keine Organveränderungen"}
    ]}
  ]
}
